Experimental data from article PMC5607274, “An iterative compound screening contest method for identifying target protein inhibitors using the tyrosine-protein kinase Yes” (Scientific Reports, 2017).

Biological target: T1, human recombinant Yes [a.a. 2–543 (end)] (Homo sapiens, UniProt P07947)
T1 construct: human recombinant Yes [a.a; 2–543 (end)]; purchased BPS Bioscience 40488
Test: ADP-Glo kinase assay, inhibition rates of Yes phosphorylation activity (first and second screening)
Assay type: biochemical
Details: 10 μmol L−1 compound; for First screening IR (inhibition rate): mean of n = 4 wells; for Second screening IR (inhibition rate): dissolved from fresh powder, n = 4
Summary of the method: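 Hits from a first pass were rescreened after re-dissolution from fresh powder. The first pass reported the mean inhibition rate of quadruplicate wells per compound. Activity was that of recombinant human Yes [a.a. 2–543] kinase, read out with the ADP-Glo ADP-detection method.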

T1 sequence (P07947 2-543): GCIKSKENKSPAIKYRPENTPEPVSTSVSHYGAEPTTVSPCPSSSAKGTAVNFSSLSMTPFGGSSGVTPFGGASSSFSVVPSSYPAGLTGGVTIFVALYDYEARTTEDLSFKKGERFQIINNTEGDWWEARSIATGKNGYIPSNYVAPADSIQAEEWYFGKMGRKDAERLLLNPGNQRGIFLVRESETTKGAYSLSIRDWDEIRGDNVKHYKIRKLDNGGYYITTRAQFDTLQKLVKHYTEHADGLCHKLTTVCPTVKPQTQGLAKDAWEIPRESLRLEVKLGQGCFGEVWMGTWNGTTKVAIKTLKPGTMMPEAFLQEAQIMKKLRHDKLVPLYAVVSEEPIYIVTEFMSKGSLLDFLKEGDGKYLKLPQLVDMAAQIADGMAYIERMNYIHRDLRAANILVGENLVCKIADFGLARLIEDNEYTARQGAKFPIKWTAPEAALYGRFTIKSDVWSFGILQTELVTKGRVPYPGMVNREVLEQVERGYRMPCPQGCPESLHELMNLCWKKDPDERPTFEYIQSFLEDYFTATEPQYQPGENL

| SMILES | First screening IR (inhibition rate) | Second screening IR (inhibition rate) |
| --- | --- | --- |
| COc1ccc(/C=C2/CCCc3c2nc2ccccc2c3C(=O)O)cc1 [Compound Z46035754] | 9% | – |
| Cc1cc(C)c(C)c(S(=O)(=O)Nc2ccccc2C(=O)N2CCN(c3cccc(C(F)(F)F)c3)CC2)c1C [Compound Z56576419] | 21% | – |
| CC(=O)c1cccc(NC(=O)c2sc(Nc3ccc(C)cc3)c(C(=O)NCCN3CCOCC3)c2N)c1 [Compound Z56914008] | -3% | – |
| O=C1C(=O)N(CCCn2ccnc2)C(c2ccc(F)cc2)/C1=C(\O)c1ccc(Cl)cc1 (centres unmarked) [Compound Z57239976] | -5% | – |
| O=C(O)/C(=C\c1cccc(C(F)(F)F)c1)Sc1nnc(-c2ccco2)o1 [Compound Z95207137] | -11% | – |
| Cc1cccc(NC(=O)CNC(=O)c2cn3c(C)cccc3n2)c1C [Compound Z27271554] | 3% | – |
| FC(F)(F)c1nc(N2CCOCC2)c2cnn(Cc3ccccc3)c2n1 [Compound Z108567148] | -2% | – |
| COc1cc(/C=N/Nc2ncnc3sc(-c4ccccc4)cc23)cc(OC)c1OC [Compound Z49894862] | 34% | 22% |
| Cc1cc(N=C2C(=O)Nc3c(Cl)cc(Cl)cc32)ccc1Br [Compound Z56849070] | 1% | – |
| Cc1cc(C(=O)CCC(=O)NCCc2c[nH]c3ccccc23)c(C)s1 [Compound Z32439393] | 21% | – |
| Cc1c(C(=O)NCCSc2ccc(Br)cc2)[nH]c2c1C(=O)CCC2 [Compound Z51996046] | 8% | – |
| Cc1nc(-c2ccsc2)sc1C(=O)Nc1ccc(Cl)cc1F [Compound Z115004236] | 6% | – |
| CSc1ncccc1C(=O)OCC(=O)N1N=C(c2ccc3ccccc3c2)CC1c1ccccc1 (centres unmarked) [Compound Z18838070] | 9% | – |
| Cc1sc2ncnc(Nc3ccc4c(c3)OCO4)c2c1C [Compound Z31191207] | 14% | – |
| CCOC(=O)C1=C(CN2CCN(Cc3nc4sc5c(c4c(=O)[nH]3)CCCC5)CC2)NC(=O)NC1CC (centres unmarked) [Compound Z46405175] | 0% | – |
| COC(=O)c1ccc(CNC(=O)Cn2c(=O)c3c(ncn3CCC(C)C)n(Cc3ccccc3)c2=O)cc1 [Compound Z24149625] | 8% | – |
| COCCCn1c(=O)c2ccccc2n2c(SCc3cn4ccccc4n3)nnc12 [Compound Z17893104] | -35% | – |
| Cl.Oc1ccc(-c2cc(-c3ccccc3)c3cc(Cl)ccc3n2)cc1 [Compound Z48950817] | 51% | -2% |
| COc1ccc(CCn2c(N)c(C(=O)NCc3ccc4c(c3)OCO4)c3nc4ccccc4nc32)cc1OC [Compound Z56872869] | 34% | -24% |

| SMILES | First screening IR (inhibition rate) | Second screening IR (inhibition rate) |
| --- | --- | --- |
| CCCCc1ccc(NC(=S)N2CC3(C)CC2CC(C)(C)C3)cc1 (centres unmarked) [Compound Z45795780] | -6% | – |
| CCCOc1ccc(OCC(=O)Nc2ccc3oc(C)nc3c2)cc1 [Compound Z70909650] | 11% | – |
| COc1ccccc1-c1nn(-c2ccccc2)cc1C(=O)N1CCN(CC(=O)N2CCCCC2)CC1 [Compound Z145138304] | 15% | – |
| CC1CCN(c2ccc(NC(C)C(=O)Nc3cccc([N+](=O)[O-])c3)cc2)CC1 (centres unmarked) [Compound Z132693290] | 26% | – |
| COc1cc(/C=C2/CC(C)Cc3c2nc2ccccc2c3C(=O)O)ccc1O (centres unmarked) [Compound Z46107807] | -4% | – |
| Cc1noc(C)c1COC(=O)CCc1nc(-c2cccs2)no1 [Compound Z114088706] | 9% | – |
| Cc1nn(CCC#N)c2nc(-c3ccc(Br)cc3)cc(C(F)(F)F)c12 [Compound Z55874673] | -4% | – |
| CC(C)C(NC(=O)c1ccc(CNC(N)=O)cc1)c1ccccc1 (centres unmarked) [Compound Z96018682] | -1% | – |
| CCN(C1CCS(=O)(=O)C1)S(=O)(=O)c1ccc(Br)cc1 (centres unmarked) [Compound Z45467079] | 4% | – |
| COc1cc(NC(=O)c2cc(-c3ccccc3)nc3c2cnn3C(C)C)cc(OC)c1 [Compound Z52023681] | -11% | – |
| CC(C)n1ncc2c(C(=O)N3CCN(c4ccc(F)cc4)CC3)cc(-c3ccccc3)nc21 [Compound Z52005969] | 27% | – |
| O=C(OCC(=O)N1N=C(c2ccc(Cl)cc2)CC1c1ccco1)c1cc(-c2ccco2)nc2ccccc12 (centres unmarked) [Compound Z18799147] | 0% | – |
| CNc1ccc(/C=C2/CC(C)Cc3c2nc2ccccc2c3C(=O)O)cc1[N+](=O)[O-] (centres unmarked) [Compound Z46108034] | 11% | – |
| O=S(=O)(c1ccccc1Cl)N1CCN(Cc2cn3ccccc3n2)CC1 [Compound Z89155296] | 15% | – |
| COc1ccccc1NC(=O)c1ccc(NC(=O)COc2ccc(-c3nc(C)cs3)cc2)cc1 [Compound Z99004386] | 5% | – |
| COc1ccc(Nc2nc(-c3ccc(Cl)s3)cs2)cc1 [Compound Z48857068] | 4% | – |
| O=C(NCCCOc1ccccc1F)c1ccc2nc[nH]c2c1 [Compound Z147064724] | 0% | – |
| Cc1noc(C)c1COc1ccc(C(=O)NCCCn2ccc3ccccc32)cc1 [Compound Z32811942] | 3% | – |

Further lines, results first:

| First screening IR (inhibition rate) | Second screening IR (inhibition rate) | SMILES |
| --- | --- | --- |
| -2% | – | Cc1nn(CCC(=O)O)c2nc(-c3cccs3)cc(C(=O)O)c12 [Compound Z295455358] |
| 2% | – | O=C(CCCNC(=O)c1ccc(-c2ccccc2F)o1)Nc1ccc(Cl)cc1 [Compound Z730571712] |
| 0% | – | CN(C(=O)c1ccc(C2SCCCS2)cc1)c1ccc(C(N)=O)cc1 [Compound Z740420934] |
| -3% | – | O=C1CCc2cc(C(=O)Nc3nnc(SCc4c(Cl)cccc4Cl)s3)ccc2N1 [Compound Z164941068] |
| 32% | – | CCS(=O)(=O)c1ccc(S(=O)(=O)N2CCCSCC2)cc1 [Compound Z736543988] |
| -10% | – | CCS(=O)(=O)Cc1cccc(S(=O)(=O)N(C)C)c1 [Compound Z416890194] |
| 2% | – | N#Cc1cnc(NCCC(=O)N2CCc3sccc3C2)c(Cl)c1 [Compound Z1039090738] |
| -13% | – | Cc1cc(NC(=O)C(C)SCC(=O)Nc2ccc(SC3CCCC3)cc2)no1 (centres unmarked) [Compound Z357095098] |
| -5% | – | O=C(Cc1csc(NC(=O)c2ccccc2F)n1)NCC1Cc2ccccc2O1 (centres unmarked) [Compound Z420283836] |
| 3% | – | Cc1nn(C)c2sc(C(=O)NC3CCN(C(=O)C(C)(C)C)CC3)cc12 [Compound Z421731088] |
| 7% | – | N#CCOc1ccc(Nc2nccc(C(F)(F)F)n2)cc1 [Compound Z318833320] |
| -13% | – | C[S+]([O-])CCNC(=O)c1ccc(-c2cc(Cl)cc(Cl)c2)s1 (centres unmarked) [Compound Z1220303895] |
| 3% | – | CCc1cc(=O)[nH]c(-c2cccc(NC(=O)C3(N4CCOCC4)CCCC3)c2)n1 [Compound Z1203120735] |
| -2% | – | CC(C)CCc1nc(CN2C(=O)NC3(CCN(C(=O)OC(C)(C)C)CC3)C2=O)cs1 [Compound Z1262256786] |
| -2% | – | Cc1nn(C)c2nc(-c3ccccc3)cc(C(=O)Nc3ccc4c(c3)OCO4)c12 [Compound Z222976544] |
| -1% | – | Cn1c(C(=O)Oc2ccc(NC(=O)c3ccco3)cc2)cc2ccccc21 [Compound Z762214972] |

| First screening IR (inhibition rate) | Second screening IR (inhibition rate) | SMILES |
| --- | --- | --- |
| 2% | – | O=C(c1ccc(OCC2CC2)cc1)N1CCC(c2nnc3n2CCC3)CC1 [Compound Z809056560] |
| -4% | – | Cc1ccc(-c2noc(/C=C/c3cncc(O)c3)n2)cc1F [Compound Z1642148240] |
| -6% | – | CC1=CC(=C(C#N)c2nc3ccccc3s2)C=C(C)N1c1ccc2c(c1)OCCO2 [Compound Z223450274] |
| 0% | – | COC(=O)c1cnc(N2CCCCC2)cc1N1CCCCC1 [Compound Z1465442209] |
| 7% | – | NC(=O)CCn1c(SCc2cn3ccccc3n2)nnc1-c1cccs1 [Compound Z269761360] |
| -1% | – | COC(=O)c1cn(C)c(-c2ccc(NC(=O)c3ccc(CN4CCCCC4)cc3)cc2)c1C(=O)OC [Compound Z415024646] |
| 10% | – | Cc1[nH]c(=O)c(C#N)c(C)c1CCc1nc(-c2cc(Br)cs2)no1 [Compound Z1170101191] |
| 22% | – | O=C(NCc1ccccn1)c1cc(-c2cccnc2)nc2c1cnn2Cc1ccco1 [Compound Z242175442] |
| -5% | – | O=C(NCc1cccc(C(F)(F)F)c1)Nc1ccc(NC(=O)c2ccco2)cc1 [Compound Z412775872] |
| -9% | – | CC(O)C1CCN(C(=O)NCC2CC(C)N(Cc3ccccc3)C2)C1 (centres unmarked) [Compound Z1658298345] |
| 7% | – | Nc1c(Cl)cc(Nc2nccc(C(F)(F)F)n2)cc1Cl [Compound Z318854232] |
| -2% | – | COc1ccc(CNCc2cn[nH]c2-c2ccc(C)o2)cn1 [Compound Z446209214] |
| -3% | – | Cc1ccc2[nH]c(C)c(CC(=O)Nc3n[nH]c(-c4ccccn4)n3)c2c1 [Compound Z653347886] |
| 11% | – | C(=N/Nc1nc2ccccc2nc1-c1ccccc1)/c1ccc2nccnc2c1 [Compound Z969651240] |
| -1% | – | CC(C)n1ncc2c(C(=O)Nc3ccc(F)c([N+](=O)[O-])c3)cc(-c3ccco3)nc21 [Compound Z216541962] |
